Test results from ChEMBL document CHEMBL4334516, “Kinase Chemodiversity from the Arctic: The Breitfussins” (J Med Chem, 2019).
The source made the active and inactive calls. The calls are words filed in the database; no cut-off is given here.

Experiments:
[1] = molecular target: Myosin light chain kinase family member 4 (Homo sapiens) (UniProt Q86YV6); assay: Binding affinity to wild-type human partial length MYLK4 (V79 to S380 residues) expressed in bacterial expression system assessed as residual binding level at 10 uM by active-site directed competition binding assay based Kinomescan method relative to control
SK-BR-3 = assay: Cytotoxicity in human SK-BR-3 cells assessed as reduction in cell viability incubated for 72 hrs by SRB assay; conditions: SK-BR-3, 72 h
[2] = molecular target: Myosin light chain kinase family member 4 (Homo sapiens, UniProt Q86YV6); assay: Binding affinity to wild-type human partial length MYLK4 (V79 to S380 residues) expressed in bacterial expression system by active-site directed competition binding assay based Kinomescan method
MDA-MB-436 = assay: Cytotoxicity in human MDA-MB-436 cells assessed as reduction in cell viability incubated for 72 hrs by SRB assay; conditions: MDA-MB-436, 72 h
Aurora kinase B = Aurora kinase B (Homo sapiens, UniProt Q96GD4); assay: Binding affinity to wild-type human partial length AURKB (D25 to A303 residues) expressed in mammalian expression system assessed as residual binding level at 10 uM by active-site directed competition binding assay based Kinomescan method relative to control
PBMC = assay: Cytotoxicity in human PBMC assessed as reduction in cell viability incubated for 72 hrs by SRB assay; assay type: cell-based
[3] = molecular target: Serine/threonine-protein kinase 17A (Homo sapiens) (UniProt Q9UEE5); assay: Binding affinity to wild-type human partial length DRAK1 (R32 to E363 residues) expressed in bacterial expression system assessed as residual binding level at 10 uM by active-site directed competition binding assay based Kinomescan method relative to control
[4] = molecular target: Sodium-dependent noradrenaline transporter (Homo sapiens, UniProt P23975); assay: Inhibition of [3H]nisoxetine binding to human recombinant NET incubated for 120 mins by scintillation counting method; conditions: 2 h
[5] = molecular target: cGMP-specific 3',5'-cyclic phosphodiesterase (Homo sapiens, UniProt O76074); assay: Inhibition of human recombinant phosphodiesterase type 5 using [3H]cGMP and cGMP incubated for 60 mins by scintillation counting method; conditions: 1 h
[6] = molecular target: Serine/threonine-protein kinase pim-2 (Homo sapiens, UniProt Q9P1W9); assay: Binding affinity to wild-type human partial length PIM2 (M1 to E291 residues) expressed in bacterial expression system assessed as residual binding level at 10 uM by active-site directed competition binding assay based Kinomescan method
[7] = Toxicity in zebrafish embryos assessed as survival at 1396 uM after 72 hrs (reference value: 95%); parameters: species or system Danio rerio; conditions: in vivo
[8] = Stability in mouse liver microsomes supplemented with UDP-glucuronic acid assessed as parent compound remaining level at 5 uM incubated for 1 hr by LC-MS analysis; assay type: ADME, Microsome; conditions: read-out: Stability
[9] = molecular target: Interleukin-1 receptor-associated kinase 3 (Homo sapiens, UniProt Q9Y616); assay: Binding affinity to wild-type human partial length IRAK3 (V147 to E596 residues) expressed in bacterial expression system by active-site directed competition binding assay based Kinomescan method
[10] = molecular target: Serine/threonine-protein kinase pim-1 (Homo sapiens, UniProt P11309); assay: Binding affinity to wild-type human partial length PIM1 (A15 to K313 residues) expressed in bacterial expression system assessed as residual binding level at 10 uM by active-site directed competition binding assay based Kinomescan method relative to control
[11] = Unbound fraction in human plasma at 5 uM incubated for 6 hrs at 37 degC by LC-MS analysis based equilibrium dialysis; assay type: ADME, cell-free
[12] = molecular target: Mitogen-activated protein kinase 15 (Homo sapiens) (UniProt Q8TD08); assay: Inhibition of ERK8 (unknown origin) assessed as residual enzyme activity at 50 uM by [33P]-ATP filter binding kinase assay relative to control
[13] = molecular target: 3',5'-cyclic-AMP phosphodiesterase 4D (Homo sapiens) (UniProt Q08499); assay: Inhibition of human recombinant phosphodiesterase type 4D2 using [3H]cAMP and cAMP incubated for 20 mins by scintillation counting method
[14] = Cytotoxicity in human MT3 cells assessed as reduction in cell viability incubated for 72 hrs by SRB assay; conditions: MT-3, 72 h
A673 = assay: Cytotoxicity in human A673 cells assessed as reduction in cell viability incubated for 72 hrs by SRB assay; conditions: A673, 72 h
[15] = molecular target: Citron Rho-interacting kinase (Homo sapiens, UniProt O14578); assay: Binding affinity to wild-type human partial length CIT (M68 to E432 residues) expressed in bacterial expression system by active-site directed competition binding assay based Kinomescan method
[16] = molecular target: 1-phosphatidylinositol 3-phosphate 5-kinase (Homo sapiens, UniProt Q9Y2I7); assay: Binding affinity to wild-type human partial length PIKFYVE (F1512 to C2098 residues) expressed in mammalian expression system by active-site directed competition binding assay based Kinomescan method
[17] = molecular target: Serine/threonine-protein kinase SIK3 (Homo sapiens, UniProt Q9Y2K2); assay: Binding affinity to wild-type human partial length SIK3 (A90 to L395 residues) expressed in mammalian expression system assessed as residual binding level at 10 uM by active-site directed competition binding assay based Kinomescan method relative to control
[18] = molecular target: Cyclin-G-associated kinase (Homo sapiens, UniProt O14976); assay: Binding affinity to wild-type human partial length GAK (G13 to Y338 residues) expressed in bacterial expression system by active-site directed competition binding assay based Kinomescan method
[19] = Toxicity in zebrafish embryos assessed as induction of tail degeneration by measuring unaffected embryos level at 14 uM after 72 hrs (reference value: 100%); assay type: tissue-based, Danio rerio; conditions: in vivo
[20] = molecular target: T1, Serine/threonine-protein kinase 17B (Homo sapiens, UniProt O94768); assay: Binding affinity to wild-type human full length DRAK2 (M1 to C372 residues) expressed in bacterial expression system by active-site directed competition binding assay based Kinomescan method
T1 sequence (O94768 whole entry): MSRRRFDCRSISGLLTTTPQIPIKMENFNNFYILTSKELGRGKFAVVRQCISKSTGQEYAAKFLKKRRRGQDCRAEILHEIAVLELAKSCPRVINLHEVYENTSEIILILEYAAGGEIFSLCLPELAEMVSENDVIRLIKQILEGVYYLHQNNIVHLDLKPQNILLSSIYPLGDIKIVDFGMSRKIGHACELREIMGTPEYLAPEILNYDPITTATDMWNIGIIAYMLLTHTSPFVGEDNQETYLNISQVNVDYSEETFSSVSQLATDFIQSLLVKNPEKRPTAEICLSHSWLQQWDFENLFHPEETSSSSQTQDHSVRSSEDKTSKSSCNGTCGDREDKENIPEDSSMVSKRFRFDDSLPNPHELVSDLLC

[21] = molecular target: AMP-activated protein kinase, AMPK (Homo sapiens) (UniProt P54646+O43741+P54619+Q9UGJ0+Q9Y478+Q13131+Q9UGI9); assay: Inhibition of AMPK (unknown origin) assessed as residual enzyme activity at 50 uM by [33P]-ATP filter binding kinase assay relative to control; assay type: protein-complex assay

COc1cc2c(-c3cnc(-c4ccc[nH]4)o3)c[nH]c2cc1Br
Activity [1]: 0.25% | IC50 (SK-BR-3): 1.5 µM | Kd [2]: 0.43 µM | IC50 (MDA-MB-436): > 30 µM | Activity (Aurora kinase B): 50% | Activity (PBMC): Non-Toxic | Activity [3]: 2.9% | inhibition (INH) [4]: Active | inhibition (INH) [5]: Active | Activity [6]: 54% | survival at 72 h, 1396 µM [7]: 0% | remaining at 1 h, 5 µM [8]: 100% | Kd [9]: 1.7 µM | Activity [10]: 9.5% | Fu [11]: 0.3% | Activity [12]: 9% | inhibition [13]: Active | IC50 [14]: 0.93 µM | IC50 (A673): 2.2 µM | Kd [15]: 2.7 µM | Kd [16]: 1 µM | Activity [17]: 94% | Kd [18]: 0.44 µM | Activity [19]: 0% | Kd [20]: 0.39 µM

COc1cc(Br)cc2[nH]cc(-c3oc(-c4ccc[nH]4)nc3I)c12
Activity [21]: 28%
